A short description of this data set: Stability tests in aqueous buffer solutions. The format is physicochemical. Particulars: for Stability at pH 2.5: aqueous buffer pH 2.5, 24 h at 37° C.; for Stability at pH 7: aqueous buffer pH 7, 24 h at 37° C.; for Stability at pH 9.5: aqueous buffer pH 9.5, 24 h at 37° C.

Regarding `CCCCCCCC1CCC(OCC(=O)c2ccc(OC)cc2)O1` (stereo not drawn) [compound 4, 2-(5-Heptyl-tetrahydro-furan-2-yloxy)-1-(4-methoxy-phenyl)-ethanone], the “Stability at pH 2.5” value is given as “unstable”, the “Stability at pH 7” value is “stable” and the “Stability at pH 9.5” value is “stable”.
`Cc1cc2c(cc1C(=O)COC1CCC3(CCC(C)CC3)O1)C(C)(C)CC(C)C2(C)C` (stereo not drawn) [compound 1, 1-(3,5,5,6,8,8-Hexamethyl-5,6,7,8-tetrahydro-naphtalen-2-yl)-2-(8-methyl-1-oxa-spiro[4.5]dec-2-yloxy)-ethanone]: the “Stability at pH 2.5” value is recorded as “stable”, the “Stability at pH 7” value is reported as “stable” and the “Stability at pH 9.5” value is on record as “stable”.
For `C/C=C/CCC1CCCC(OCC(=O)c2ccc3ccccc3c2)O1` (stereo not drawn) [compound 6, 1-(Naphtalen-2-yl)-2-(6-pent-3-enyl-tetrahydro-pyran-2-yloxy)-ethanone], the “Stability at pH 2.5” value is given as “unstable”, the “Stability at pH 7” value is on record as “stable” and the “Stability at pH 9.5” value is listed as “stable”.
Take `CCCCCCCC1CCC(OCC(=O)c2cc3c(cc2C)C(C)(C)C(C)CC3(C)C)O1` (stereo not drawn) [compound 2, 2-(5-Heptyl-tetrahydro-furan-2-yloxy)-1-(3,5,5,6,8,8-hexamethyl-5,6,7,8-tetrahydro-naphtalen-2-yl)-ethanone]: the “Stability at pH 2.5” value is reported as “stable”, the “Stability at pH 7” value is “stable” and the “Stability at pH 9.5” value is listed as “stable”.
With `C/C=C/CCC1CCCC(OCC(=O)c2cc3c(cc2C)C(C)(C)C(C)CC3(C)C)O1` (stereo not drawn) [compound 5, 1-(3,5,5,6,8,8-Hexamethyl-5,6,7,8-tetrahydro-naphthalen-2-yl)-2-(6-pent-3-enyl-tetrahydro-pyran-2-yloxy)-ethanone], the “Stability at pH 2.5” value is reported as “stable”, the “Stability at pH 7” value is reported as “stable” and the “Stability at pH 9.5” value is given as “stable”.
For `CCCCCCCC1CCC(OCC(=O)c2ccc3ccccc3c2)O1` (stereo not drawn) [compound 3, 2-(5-Heptyl-tetrahydro-furan-2-yloxy)-1-naphtalen-2-yl-ethanone], the “Stability at pH 2.5” value is listed as “unstable”, the “Stability at pH 7” value is on record as “stable” and the “Stability at pH 9.5” value is given as “stable”.

Values taken from patent publication US6939845B2, “Fragrance precursors” (Givaudan SA, priority 2000, dated 2005).
